# Measured values: ChEMBL document CHEMBL6078692, “Discovery of PF-07265028, A Selective Small Molecule Inhibitor of Hematopoietic Progenitor Kinase 1 (HPK1) for the Treatment of Cancer” (J Med Chem, 2024)
# pEC50, pIC50: −log10 of the molar value.
# How the values were obtained:
# [1] = target: Mitogen-activated protein kinase kinase kinase kinase 1 (Homo sapiens, UniProt Q92918); assay: Inhibition of full-length recombinant human HPK1 (1 to 182 residues) extracted from baculovirus infected Sf21 cells using phospho-acceptor peptide as substrate incubated for 15 mins in presence of ATP by fluorescence based assay
# Sequence of Mitogen-activated protein kinase kinase kinase kinase 1 (Q92918 whole entry, the tested form may be a part): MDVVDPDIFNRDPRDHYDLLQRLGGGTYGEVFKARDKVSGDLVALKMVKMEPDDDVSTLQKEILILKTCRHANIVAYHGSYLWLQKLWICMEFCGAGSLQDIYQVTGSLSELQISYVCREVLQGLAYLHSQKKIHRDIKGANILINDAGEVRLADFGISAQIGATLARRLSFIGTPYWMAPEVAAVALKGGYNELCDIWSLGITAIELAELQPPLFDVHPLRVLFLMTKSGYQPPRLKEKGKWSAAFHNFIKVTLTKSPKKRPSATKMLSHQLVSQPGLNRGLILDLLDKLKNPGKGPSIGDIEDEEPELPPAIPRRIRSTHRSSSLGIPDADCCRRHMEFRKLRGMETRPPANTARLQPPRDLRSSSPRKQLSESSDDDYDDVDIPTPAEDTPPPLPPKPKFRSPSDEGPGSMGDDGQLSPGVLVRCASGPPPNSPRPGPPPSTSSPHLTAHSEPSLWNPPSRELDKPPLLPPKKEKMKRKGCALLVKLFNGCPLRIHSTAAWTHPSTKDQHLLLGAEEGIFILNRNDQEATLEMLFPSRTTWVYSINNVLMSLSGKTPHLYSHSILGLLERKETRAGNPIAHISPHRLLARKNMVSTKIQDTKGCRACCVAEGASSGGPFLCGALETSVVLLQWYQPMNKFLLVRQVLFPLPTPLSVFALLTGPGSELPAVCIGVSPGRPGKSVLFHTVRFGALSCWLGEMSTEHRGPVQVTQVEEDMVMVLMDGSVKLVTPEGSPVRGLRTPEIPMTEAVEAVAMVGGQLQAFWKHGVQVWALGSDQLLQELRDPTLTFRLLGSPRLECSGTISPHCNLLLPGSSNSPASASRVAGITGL
# [2] = Lipophilicity, logD of compound in octanol/water by shake flask method; format: physicochemical
# Homo sapiens = organism: Homo sapiens; assay: Selectivity ratio of Ki for N-terminal 6xHis-tagged human recombinant full-length LCK to Ki for full-length recombinant human HPK1 (1 to 182 residues) expressed in baculovirus infected Sf21 cells
# [3] = Kinetic solubility of compound at pH 7.4 incubated for 24 hrs by MS/MS analysis; format: physicochemical; details: buffer, read-out: Kinetic_solubility
# [4] = Intrinsic clearance in human hepatocytes measured per million cells at 1 uM measured for 240 mins by LC-MS/MS analysis; format: ADME, cell-based, Hepatocyte; details: read-out: CLH
# [5] = Permeability in RRCK cells; format: ADME, cell-based, Canis lupus familiaris, MDCKII-LE; details: dog, MDCK; read-out: permeability
# [6] = Cytotoxicity against PBMC (unknown origin) assessed as inhibition of ATP level incubated for 3 days by Cell Titer Glo assay; format: toxicity, cell-based
# [7] = Selectivity ratio of IC50 for cytotoxicity against PBMC (unknown origin) assessed as inhibition of ATP level incubated for 3 days by Cell Titer Glo assay to IC50 for inhibition of SLP76 phosphorylation at Ser376 in human Jurkat cells incubated for 30 mins by HTRF assay; format: toxicity, cell-based; details: read-out: Ratio IC50
# [8] = Induction of IL-2 production in human T cells pretreated for 30 mins followed by anti-CD3/CD28 stimulation for 24 hrs by MSD analysis; format: functional, cell-based; details: T-cell
# [9] = Stability in human plasma assessed as half life measured for 120 mins by LC-MS/MS analysis; format: ADME, cell-free
# [10] = Clearance in mouse at 15 mg/kg, po or 1 mg/kg, iv; format: ADME, organism-based; details: in vivo
# [11] = Unbound clearance in mouse at 15 mg/kg, po or 1 mg/kg, iv; format: ADME, organism-based; details: in vivo
# [12] = Volume of distribution at steady state in mouse at 15 mg/kg, po or 1 mg/kg, iv; format: ADME, organism-based; details: in vivo
# [13] = Terminal half life in mouse at 15 mg/kg, po or 1 mg/kg, iv; format: ADME, organism-based; details: in vivo, read-out: beta t1/2 (converted)
# [14] = Tmax in mouse at 15 mg/kg, po or 1 mg/kg, iv; format: ADME, organism-based; details: in vivo
# [15] = Oral bioavailability in mouse at 15 mg/kg, po; format: ADME, organism-based; details: in vivo
# [16] = Clearance in monkey at 1 mg/kg, po or 0.5 mg/kg, iv; format: ADME, organism-based, Macaca mulatta; details: rhesus monkey, in vivo
# [17] = Unbound clearance in monkey at 1 mg/kg, po or 0.5 mg/kg, iv; format: ADME, organism-based, Macaca mulatta; details: rhesus monkey, in vivo
# [18] = Volume of distribution at steady state in monkey at 1 mg/kg, po or 0.5 mg/kg, iv; format: ADME, organism-based, Macaca mulatta; details: rhesus monkey, in vivo
# [19] = Terminal half life in monkey at 1 mg/kg, po or 0.5 mg/kg, iv; format: ADME, organism-based, Macaca mulatta; details: rhesus monkey, in vivo, read-out: beta t1/2 (converted)
# [20] = Tmax in monkey at 1 mg/kg, po or 0.5 mg/kg, iv; format: ADME, organism-based, Macaca mulatta; details: rhesus monkey, in vivo
# [21] = Oral bioavailability in monkey at 1 mg/kg, po; format: ADME, organism-based, Macaca mulatta; details: rhesus monkey, in vivo
Structure (SMILES),pIC50 [1],logD [2],Ratio Ki (Homo sapiens),hepatocyte CLint at 1 µM [4] [µL/min/1e6 cells],Papp [5] [×10⁻⁶ cm/s],IC50 at 3 days [6] [nM],selectivity ratio at 3 days [7],pEC50 [8],also measured
CNCc1nc(N(C)C)cc2c1CN(c1cccc(-c3nncn3[C@@H](C)CC(F)(F)F)n1)C2=O,> 10.30,1.3,> 260,–,–,–,–,–,–
CC(C)n1cnnc1-c1cccc(N2Cc3c(CO)cccc3C2=O)n1,7.66,2.1,> 13,–,–,–,–,–,solubility kinetic at 24 h [3]: < 0.1 µM
CCCn1cnnc1-c1cccc(N2Cc3c(cc(N4CCC[C@H]4C)nc3CNC)C2=O)n1,> 10.22,2.1,–,23,15.1,1100,32,7.42,–
CC(C)n1cnnc1-c1cccc(NC(=O)c2cccc3c2OCC(N)C3)n1 (stereo not drawn),8.11,1.2,> 65,–,–,–,–,–,–
CC(C)n1cnnc1-c1cccc(NC(=O)c2cccc3c2nc(CN)n3C)n1,8.00,1.7,> 45,–,–,–,–,–,–
CC(C)n1cnnc1-c1cccc(N2Cc3c(CN)cccc3C2=O)n1,6.71,0.7,> 3,–,–,–,–,–,half-life [9]: > 6 h; solubility kinetic at 24 h [3]: > 600 µM
CCC(C)n1cnnc1-c1cccc(NC(=O)c2cccc3c2OCC(N)C3)n1 (stereo not drawn),8.66,1.7,> 230,–,–,–,–,–,half-life [9]: 3.38 h
C[C@@H]1CCCN1c1cc2c(c([C@@H](C)N)n1)CN(c1cccc(-c3nnc4n3[C@@H](C)CC4)n1)C2=O,> 10.30,2.3,–,–,–,1100,21,7.21,–
CC[C@H](C)n1cnnc1-c1cccc(NC(=O)c2cccc3c2nc(CN)n3C)n1,8.57,2,37,–,–,–,–,–,half-life [9]: 2.1 h
CNCc1cc(OC)cc2c1CN(c1cccc(-c3nncn3[C@@H](C)CC(F)(F)F)n1)C2=O,9.52,1.6,210,11,20.4,487,4,–,solubility kinetic at 24 h [3]: 202 µM
CNCc1cc(OC)cc2c1CN(c1cccc(-c3nncn3C(C)C)n1)C2=O,8.96,1.1,> 470,10,27,1700,5,–,solubility kinetic at 24 h [3]: 495 µM
CNCc1nc(N(C)C)cc2c1CN(c1cccc(-c3nncn3C(C)C)n1)C2=O,9.82,0.8,1600,–,–,–,–,–,–
CC[C@@H](N)c1nc(N2CCC[C@H]2C)cc2c1CN(c1cccc(-c3nnc4n3[C@@H](C)CC4)n1)C2=O,–,2.5,–,56,8.3,800,–,7.23,solubility kinetic at 24 h [3]: 260 µM; clearance [10]: 39 mL/min/kg; CL free [11]: 690 mL/min/kg; Vdss [12]: 4.9 L/kg; half-life [13]: 3.3 h; Tmax [14]: 2 h; bioavailability [15]: 38%; clearance [16]: 14 mL/min/kg; CL free [17]: 143 mL/min/kg; Vdss [18]: 3.7 L/kg; half-life [19]: 4.3 h; Tmax [20]: 1 h; bioavailability [21]: 20%
COc1ccc(CC#N)cc1C(=O)Nc1cccc(-c2nncn2C(C)C)n1,7.85,2.3,6,–,–,–,–,–,–
CCCn1cnnc1-c1cccc(N2Cc3c(cc(N(C)C)nc3CNC)C2=O)n1,9.57,1,–,5.2,17.7,3500,29,7.01,–
CNCc1nc(N(C)C(C)C)cc2c1CN(c1cccc(-c3nnc4n3[C@@H](CF)CC4)n1)C2=O,10.15,1.6,–,–,–,1300,25,7.19,–
CC[C@H]1CCc2nnc(-c3cccc(N4Cc5c(cc(N(C)C(C)C)nc5CNC)C4=O)n3)n21,> 10.22,2.2,–,–,–,500,13,6.94,–
CCCn1c(C)nnc1-c1cccc(N2Cc3c(cc(N(C)C(C)C)nc3CNC)C2=O)n1,> 9.77,2,–,–,–,> 3300,> 41,6.81,–
COc1ccc2c(c1CN)CN(c1cccc(-c3nncn3[C@@H](C)CC(F)(F)F)n1)C2=O,8.60,0.7,> 140,< 2.3,2.9,–,–,–,solubility kinetic at 24 h [3]: 372 µM
CCCn1cnnc1-c1cccc(N2Cc3c(cc(N(C)C(C)C)nc3CNC)C2=O)n1,> 9.89,2,–,15,19.3,2100,24,7.13,–
CC[C@@H](N)c1nc(N2CCC[C@H]2C)cc2c1CN(c1cccc(-c3nncn3CC)n1)C2=O,> 10.05,2.3,–,–,–,2200,42,6.85,–
CNCc1nc(N(C)C(C)C)cc2c1CN(c1cccc(-c3nnc4n3[C@@H](C)CC4)n1)C2=O,> 10.30,1.9,–,–,–,500,11,7.33,–
